Measurements: the NIST ThermoML archive (doi:10.1016/j.fluid.2011.05.004)

Details: Liquid, Chromatography

In the case of CCCCCCC [heptane], the “vapor or sublimation pressure” value (324.56 K) is reported as 20 kPa and the “vapor or sublimation pressure” value (371.35 K) is reported as 101.3 kPa.

In the case of CC(C)CC(C)(C)C [2,2,4-trimethylpentane], the “vapor or sublimation pressure” value (323.65 K) is reported as 20 kPa and the “vapor or sublimation pressure” value (372.33 K) is reported as 101.3 kPa.

With CCCCCC [hexane] the “vapor or sublimation pressure” value (307.66 K) was 30 kPa and the “vapor or sublimation pressure” value (341.79 K) was 101.3 kPa.

With CCC(C)=O [butanone] the “vapor or sublimation pressure” value (309.65 K) was 20 kPa, the “vapor or sublimation pressure” value (319.95 K) was 30 kPa and the “vapor or sublimation pressure” value (352.68 K) was 101.3 kPa.
